Columns and labels:
[1] = tested on: KURAMOCHI; assay: cancer cell viability relative to untreated control; higher = less cytotoxic; details: 72 h
Protocol: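 KURAMOCHI or OVCAR8 cells were grown in monoculture or in co-culture with WI38 or patient-derived 030F fibroblasts and treated for 72 h with a dose matrix of carboplatin combined with birinapant or vorinostat (doses in nM). Cancer cell viability was measured by CK8/18 immunofluorescence imaging and expressed as % of untreated control, given as mean with SD.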

[2] = tested on: Gem031 (ex vivo spheroids of an HRD-negative high-grade serous ovarian cancer); assay: cell viability relative to untreated control (ex vivo patient spheroids); higher = less cytotoxic; details: 72 h
Protocol: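 Ex vivo 3D spheroid cultures from dissociated tumours of HGSOC patients (DET3CT platform) were treated for 72 h with dose matrices of carboplatin combined with birinapant or vorinostat (nM). Live (TMRM) and dead (POPO-1) cells were imaged and viability was expressed as % of untreated control.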

O=C(O)C1(C(=O)O)CCC1.[NH2-].[NH2-].[Pt+2] [Carboplatin] + O=C(CCCCCCC(=O)Nc1ccccc1)NO [Vorinostat]
cancer cell viability [%], [1]
Details | partner drug concentration 0 nM | partner drug concentration 1 nM | partner drug concentration 10 nM | partner drug concentration 100 nM | partner drug concentration 1000 nM | partner drug concentration 10000 nM
carboplatin concentration 10 nM, co-cultured fibroblast: 030F | 95.1 | 107 | 95.5 | 77.5 | 36.9 | 4.67
carboplatin concentration 10 nM, co-cultured fibroblast: WI38 | 93.7 | 107 | 97.6 | 70 | 26.5 | 5.05
carboplatin concentration 10 nM, co-cultured fibroblast: none (monoculture) | 101 | 111 | 101 | 67.6 | 31.1 | -0.479
carboplatin concentration 100 nM, co-cultured fibroblast: 030F | 95.5 | 106 | 102 | 75.9 | 28.8 | 3.53
carboplatin concentration 100 nM, co-cultured fibroblast: WI38 | 91.6 | 101 | 91.2 | 63.2 | 21 | 5.14
carboplatin concentration 100 nM, co-cultured fibroblast: none (monoculture) | 95.7 | 101 | 92.7 | 63.3 | 24.3 | 0.0805
carboplatin concentration 1000 nM, co-cultured fibroblast: 030F | 91.6 | 85.7 | 89.1 | 58.1 | 31.1 | 6.6
carboplatin concentration 1000 nM, co-cultured fibroblast: WI38 | 94.4 | 88.8 | 88.6 | 52 | 18.7 | 5.75
carboplatin concentration 1000 nM, co-cultured fibroblast: none (monoculture) | 102 | 103 | 91.6 | 54.2 | 20.8 | 1.21
carboplatin concentration 1e+05 nM, co-cultured fibroblast: 030F | 44.4 | 47.7 | 47.7 | 38 | 39 | 1.97
carboplatin concentration 1e+05 nM, co-cultured fibroblast: WI38 | 31.1 | 39.3 | 39.4 | 30.1 | 20.6 | 0.366
carboplatin concentration 1e+05 nM, co-cultured fibroblast: none (monoculture) | 26.6 | 37.6 | 37 | 22.8 | 21.3 | -3.77
carboplatin concentration 10000 nM, co-cultured fibroblast: 030F | 51.7 | 72.2 | 71.1 | 55.5 | 45 | 3.59
carboplatin concentration 10000 nM, co-cultured fibroblast: WI38 | 40.7 | 72 | 68 | 46.1 | 28.8 | 4.43
carboplatin concentration 10000 nM, co-cultured fibroblast: none (monoculture) | 23.9 | 80.8 | 62.8 | 49.1 | 27.5 | -0.104

cell viability [%], [2]
Details | partner drug concentration 0 nM | partner drug concentration 1 nM | partner drug concentration 10 nM | partner drug concentration 100 nM | partner drug concentration 1000 nM | partner drug concentration 10000 nM
carboplatin concentration 10 nM | 87.9 | 97.2 | 94 | 90.4 | 85.1 | 89.4
carboplatin concentration 100 nM | 110 | 97.1 | 101 | 95.1 | 92.6 | 98.7
carboplatin concentration 1000 nM | 88 | 96.9 | 104 | 100 | 93.3 | 64.1
carboplatin concentration 10000 nM | 79.2 | 97.2 | 90.6 | 92.2 | 78.4 | 38.7
carboplatin concentration 100000 nM | 26.3 | 31.4 | 30.1 | 22.9 | 16.9 | 14.6

Source: the supplement of paper PMC12420376
